# What was measured:
# Format in all cases: in vivo, Arabidopsis thaliana
# Arabidopsis seedlings [1] = experiment: Somatic embryogenesis from germinated Arabidopsis seeds in liquid medium with 1 μM 2,4-D (containers)
# From the text: The chemical screen was based on a modified version of an Arabidopsis somatic embryogenesis protocol that uses germinated seeds as explants (see Kobayashi et al., 2010 Kobayashi T, Nagayama Y, Higashi K and Kobayashi M. (2010). Establishment of a tissue culture system for somatic embryogenesis from germinating embryos of Arabidopsis thaliana Plant Biotech. 27: 359-364). In the original protocol, seeds were germinated on solid medium for one day, then the embryos were removed from the seed coat and transferred to solid media containing 4.5 μM 2,4-D to stimulate somatic embryo development. In this example, the protocol is simplified by germinating and culturing the seeds continuously in liquid medium containing 1 μM 2,4-D. Under optimized culture conditions (circa 30 seeds in 30 ml medium in 100 ml containers) approximately 18% of Col0 seeds form somatic embryos.
# Approximately 10 surface-sterilized Columbia (Col-0) seeds were added to each well. The seeds were stratified at 4° C. in the dark for two days and then grown in on a rotary shaker (100 rpm/min) on a 16 h/8 h day/night cycle at 25° C. The number of seedlings that formed somatic embryos was counted two weeks later. Candidate compounds identified in the first screen were reordered (Chembridge or Maybridge), and re-tested in a second screen under the same conditions as the primary screen, but with a larger sample number (one 96-well microtitre plate/compound). Positive compounds were analysed using ChemMine (http//bioweb.ucr.edu/ChemMineV2/), ChemSpider (http//www.chemsider.com/) and the ZINC database (http://zinc.docking.org) for analogues with a known biological function.
# All subsequent experiments were performed under the conditions described above, but using 100 ml containers (Greiner) containing 30 ml of medium media using approximately 30 seeds/container. All hormones were ordered from Duchefa and Dicamba from Sigma-Aldrich.
# Arabidopsis seedlings [2] = experiment: NAA induced somatic embryogenesis with or without C#3
# Protocol: The ability of C#3 to enhance embryogenesis in the presence of other auxins was tested; namely the synthetic auxin naphthalene-1-acetic acid (NAA). […] C#3 therefore enhances the developmental responses that are activated by auxin treatment. Compound C#3 is therefore able to potentiate the effect of other auxins.
# germinating seeds = experiment: Developmental competence: C#3 added at different time points after start of culture
# Protocol: The competence of an explant for in vitro regeneration is determined for a large part by its developmental state. The developmental competence of germinating seedlings to respond to C#3 was examined by adding C#3 at different time points after the start of culture. Seeds were stratified at 4° C. in media containing 1 μM 2,4-D. 25 μM C#3 or the equivalent volume of DMSO (control) was added to the media at different time points after the cultures were transferred to 25° C. The number of seedlings with somatic embryos was determined after two weeks of culture.
# Arabidopsis seedlings [3] = experiment: Time course of somatic embryo development, morphology and ENOD4L::GFP / LEC1::LEC1:GFP embryo markers
# Protocol: The effect of the compounds on seedlings, without 2,4-D, was tested by germinating seedlings on MS10 solidified with 1% agar, and supplemented with 25 μM compound or DMSO. The ENOD4L promoter comprises a 1035 bp promoter from Brassica napus (AB098076.1), which was cloned in front of green fluorescent protein (GFP). A 3110 bp DNA fragment comprising 1292 bp upstream of the LEC1 translational start site and the entire LEC1 protein coding region was cloned in front of green fluorescent protein (GFP). These vectors were transformed to Arabidopsis ecotype Columbia (Col-0).
# Control and C#3-treated cultures were examined at different time points in their development to determine the effect of C#3 on the course of somatic embryo development. Differences between the control and C#3-treated cultures were visible at about four days of culture. The epidermal and cortex cells of the root elongation zone and hypocotyl in the control seedlings increased in size, but not in the C#3-treated seedlings. On the sixth day of culture the differences between the two cultures was more pronounced. […] Callus was present on the tips of the cotyledons in circa 10% of the control seedlings, and up to 70% of the C#3 treated seedlings. This callus comprised loose, large cells on the outside, and smaller, denser cells on the on inside.
# The timing and location of somatic embryo formation in control and compound-treated cultures was examined in more detail using two early embryo expressed marker genes, ENOD4-like (ENOD4L::GFP), and LEAFY COTYLEDON1 (LEC1::LEC1:GFP). Expression of ENOD4L::GFP and LEC1:GFP in zygotic embryos was observed from the zygote- and two-celled embryo proper stage onward, respectively. […] The GFP-positive sectors increased in size over the next few days, and on the sixth day of culture, GFP-positive globular embryos could be distinguished. The only difference between the C#3-treated and control cultures with respect to embryo marker expression was the number of seedlings displaying GFP fluorescence, which was higher in the C#3-treated cultures.
# Arabidopsis seedlings [4] = experiment: Somatic embryo formation at 0 to 2 μM 2,4-D with or without C#3
# From the text: 2,4-D is widely used to induce somatic embryogenesis from plant explant. In Arabidopsis immature zygotic embryos occasionally form somatic embryos when grown in basal medium, while germinating embryos or other vegetative tissues are unable to form embryos. […] Compound #3 therefore potentiates the effect of auxin 2,4-D. As shown in the micrograph in FIG. 7B, at the lowest effective concentration of C#3, areas of dense, light green embryogenic tissue (arrows) were formed, rather than histodifferentiated, bipolar somatic embryos.
# [5] = 25 μM compound, 1 μM 2,4-D, FIG. 1
smiles,measurement,setting,value
"O=C(O)COc1ccc(Cl)cc1Cl [2,4-D, 2,4 dichlorophenoxyacetic acid, reference compound]",seeds forming somatic embryos,"Arabidopsis seedlings [1]; 1 μM 2,4-D alone, Col0, circa 30 seeds in 30 ml medium",approximately 18%
"O=C(O)Cc1cccc2ccccc12 [NAA, naphthalene-1-acetic acid, reference compound]",frequency of somatic embryogenesis with NAA alone,"Arabidopsis seedlings [2]; 10 μM NAA, FIG. 8",induced a low frequency of somatic embryogenesis
"Cc1ccccc1N(C)S(=O)(=O)c1ccc(Cl)cc1 [C#3, 4-chloro-N-methyl-N-(2-methylphenyl)benzenesulfonamide]",time of addition giving best response,"germinating seeds; 25 μM C#3, 1 μM 2,4-D, scored after two weeks, FIG. 6",within the first two days of culture
same,enhancement of somatic embryogenesis on late addition,germinating seeds; 25 μM C#3 added after four days of culture,reached control levels
same,effect on NAA induced somatic embryogenesis,Arabidopsis seedlings [2]; 25 μM C#3 with 10 μM NAA,enhanced
same,number of seedlings displaying GFP fluorescence versus control,Arabidopsis seedlings [3]; embryo marker expression,higher
same,first detection of ENOD4L::GFP and LEC1:GFP marker expression,Arabidopsis seedlings [3]; region of the shoot meristem,starting from day four of culture
same,callus formation in root/hypocotyl region,Arabidopsis seedlings [3]; sixth day of culture,"formed a large, connected mass of vascular-derived callus"
same,cell loosening and detachment in hypocotyl and root,Arabidopsis seedlings [3]; sixth day of culture,to a lesser extent than the control
same,seedlings with callus on the tips of the cotyledons,"Arabidopsis seedlings [3]; sixth day of culture, control circa 10%",up to 70%
same,number of embryogenic seedlings compared to control cultures,Arabidopsis seedlings [3]; tenth day of culture,much higher
same,"somatic embryo formation in the absence of 2,4-D","Arabidopsis seedlings [4]; 25 μM C#3, no 2,4-D, FIG. 7A",not able to induce somatic embryo formation
same,"somatic embryo formation at all tested 2,4-D concentrations","Arabidopsis seedlings [4]; 25 μM C#3, up to 2 μM 2,4-D",did enhance somatic embryo formation
same,"level of SE, percentage of seedlings with somatic embryos, compared to control of 1 μM 2,4-D alone",Arabidopsis seedlings [1]; [5],significantly increases the level of SE
same,potency as inducer of SE,Arabidopsis seedlings [1]; [5],particularly potent inducers
same,seedlings with somatic embryo development,"Arabidopsis seedlings [1]; 10 to 50 μM C#3, 1 μM 2,4-D, control circa 20%",approximately 70%
same,number of somatic embryo-producing seedlings in different Arabidopsis ecotypes,Arabidopsis seedlings [1]; ecotypes other than Col0,enhanced the number of somatic embryo-producing seedlings
same,rank of percentage of seedlings with somatic embryos among screened compounds,"Arabidopsis seedlings [1]; in presence of 2,4-D",induced the highest percentage of seedlings with somatic embryos
same,level of SE with increasing concentrations of compound,"Arabidopsis seedlings [1]; none to 50 μM, fixed 1 μM 2,4-D, FIG. 5",increases the level of SE

# Reference: patent publication US20150291517A1, “BENZENESULFONAMIDE COMPOUNDS FOR SOMATIC EMBRYOGENESIS IN PLANTS” (priority 2012, published 2015)
